{"source": "paper PMC10042540", "about": "“Targeting oncogenic KRasG13C with nucleotide-based covalent inhibitors” (eLife, 2023)", "format_in_all_cases": "binding", "key": {"[1]": {"tested_on": "nucleotide-free KRas", "test": "Stopped-flow competition with mantdGDP (association kinetics)", "details": "for kon: 25 °C, 1 µM KRas, 2 µM mantdGDP, 1, 2, 6 µM competing nucleotide, global fit; for koff: calculated kinetic parameter", "experimental": "The association kinetics of the nucleotide analogues were analyzed with a SX-20 stopped-flow instrument (Applied Photophysics) at 25 °C in a buffer consisting of 25 mM HEPES (pH 7.5), 100 mM NaCl, 1 mM MgCl2, and 0.5 mM TCEP. 1 µM of nucleotide-free KRas ([Müller et al., 2017]) in one syringe was mixed rapidly with 2 µM mantdGDP in the other. In subsequent experiments, the second syringe contained competing nucleotides (1, 2, and 6 µM) in addition to 2 µM mantdGDP. The resulting progress curves were globally fit using KinTek Explorer to obtain the corresponding association rate constants as previously described (Table 1—source data 1, Table 1—source data 2 [Johnson et al., 2009])."}, "[2]": {"tested_on": "T1, KRasG13C1-169 (Cys-light)", "T1 construct": "KRasWT1-169 and KRasG13C1-169 Cys-light (C51S C80L C118S) were expressed in BL21 (DE3) E. coli; hexahistidine (TEV site) (N, cleaved yes); made in house; host or cells: E. coli BL21 (DE3)", "test": "Covalent modification of protein controlled by ESI-MS", "experimental": "After incubation at room temperature for the appropriate time, the modification of the protein was controlled by ESI-MS. For covalent modification of full-length KRasG13C, a nucleotide exchange with a 10-fold excess of the acryl-bearing nucleotides at pH 7.5 was first performed following incubation at room temperature for 24 h at pH 9.5 for covalent protein modification. Covalent protein modification was controlled by ESI-MS. The MS spectra were recorded on a VelosPro IonTrap (Thermo Scientific) with an EC 50/3 Nucleodur C18 1.8 μm column (Macherey and Nagel) and a gradient of the mobile phase A (0.1% formic acid in water) to B (0.1% formic acid in acetonitrile)."}, "[3]": {"target": "KRasWT1-169 (Homo sapiens, UniProt P01116)", "sequence (P01116 1-169)": "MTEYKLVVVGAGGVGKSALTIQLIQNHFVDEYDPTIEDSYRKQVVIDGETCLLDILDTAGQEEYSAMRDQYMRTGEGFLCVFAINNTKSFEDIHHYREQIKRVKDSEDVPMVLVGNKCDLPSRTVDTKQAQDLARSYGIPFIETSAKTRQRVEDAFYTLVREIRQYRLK", "test": "HPLC-based approach for determination of affinities relative to GDP", "details": "for KA: KA = KA(GDP) x KrelA, GDP from KA = 1/KD; for relative association constant KrelA: relative to GDP", "experimental": "The relative affinities of the nucleotide analogues were measured using an HPLC-based approach. 50 μM of […] was mixed with 50 μM of the acetamide derivatives and incubated either for 7 days at room temperature in the absence of EDTA, for 24 hr at 4 °C in the presence of 10 mM EDTA, or for 1 hr at room temperature in the presence of SOS in a buffer consisting of 20 mM HEPES (pH 7.5), 100 mM NaCl, 2 mM MgCl2, 1 mM TCEP and 5% glycerol. After incubation, the Ras proteins were washed five times with buffer (15 mL) using centrifugal filter devices to remove any unbound nucleotide, concentrated and analysed by isocratic HPLC runs. The resulting curves were analysed by integrating the corresponding peaks for GDP and the guanosine nucleotide analogues after distinct time points using the Agilent ChemStation Software (Table 1-source data 3, Table 1-source data 4). Based on the percentage distribution determined by the HPLC assay, the relative association constants (KrelA) for […] and bdaGDP could subsequently be calculated. In contrast, the superposition of the GDP signal prevented an exact determination of the relative association constant for […] values of 0.34 and 0.28 relative to GDP were determined for […] and bdaGDP, respectively. […] By rearranging the equilibrium reactions listed in (Equation 1a) and (Equation 1b), the following relationships are obtained for KGDP (Equation 2a) and […] Assuming that the concentration for aGDP used in the HPLC assay is 50 μM, the following GDP concentrations for […] (Equation 3a) and bdaGDP (Equation 3b) can be determined at time t=0 hr using the percentages determined in Table 1-source data 3:(3a) GDPtotal=%GDP/%[…]=37%/63%×50μM=29.4μM (3b) GDPtotal=%GDP/%bdaGDP=43%/57%×50μM=37.7μM The concentrations of the components listed in equation (Equation 2b) can be calculated as follows for […] (Equation 4a, Equation 4b, Equation 4c, Equation 4d) and bdaGDP (Equation 5a, Equation 5b, Equation 5c, Equation 5d) by considering the total GDP concentrations calculated previously:(4[…]]=47/100×29.4μM=13.8μM (4b) [Ras:GDP]=53/100×29.4μM=15.6μ[…]]=50μM-13.8μM=36.2μM (4d) [GDP]=29.4μM-15.6μM=13.8μM (5a) [Ras:bdaGDP]=39.5/100×37.7μM=14.9μM (5b) [Ras:GDP]=60.5/100×37.7μM=22.8μM (5c) [bdaGDP]=50μM-14.9μM=35.1μM (5d) [GDP]=37.7μM-22.8μM=14.9μM The relative association constant KrelA can be calculated by the following formula (Equation 6):(6) […] By inserting the concentrations of each component determined from (Equation 4a, Equation 4b, Equation 4c, Equation 4d) and (Equation 5a, Equation 5b, Equation 5c, Equation 5d) into (Equation 6), the relative association constants KrelA for […] (Equation 10a) and […]=1/0.136pM^-1=7.4pM (10b) KDbdaGDP=1/0.112pM^-1=8.9pM"}, "[4]": {"details": "-EDTA, 7 days at room temperature"}, "[5]": {"details": "worked calculation KD = 1/KA, Equation 10a/10b"}}}
{"smiles": "Nc1nc2c(ncn2[C@@H]2O[C@H](COP(=O)(O)OP(=O)(O)OP(=O)(O)O)[C@@H](O)[C@H]2O)c(=O)[nH]1", "note": "[GTP, reference compound]", "values": [{"measurement": "kon", "setting": "[1]", "result": 5.23, "unit": "µM^–1s^–1"}]}
{"smiles": "C=CC(=O)NCCCCNC(=O)O[C@H]1[C@@H](O)[C@H](n2cnc3c(=O)[nH]c(N)nc32)O[C@@H]1COP(=O)(O)OP(=O)(O)O", "note": "[acryl-bdaGDP]", "values": [{"measurement": "covalent labelling of KRasG13C1-169 (Cys-light)", "setting": "[2]; pH 7.5, after 24 hr", "result": "slight labelling"}, {"measurement": "covalent labelling of KRasG13C1-169 (Cys-light)", "setting": "[2]; pH 9.5, after 24 hr", "result": "~100", "unit": "%"}]}
{"smiles": "C=CC(=O)NCCCNC(=O)O[C@H]1[C@@H](O)[C@H](n2cnc3c(=O)[nH]c(N)nc32)O[C@@H]1COP(=O)(O)OP(=O)(O)O", "note": "[acryl-pdaGDP]", "values": [{"measurement": "covalent labelling of KRasG13C1-169 (Cys-light)", "setting": "[2]; pH 7.5, after 24 hr", "result": "slight labelling"}, {"measurement": "covalent labelling of KRasG13C1-169 (Cys-light)", "setting": "[2]; pH 9.5, after 24 hr", "result": "~100", "unit": "%"}]}
{"smiles": "C=CC(=O)NCCCCNC(=O)O[C@H]1[C@@H](O)[C@H](n2cnc3c(=O)[nH]c(N)nc32)O[C@@H]1COP(=O)(O)OP(=O)(O)O", "note": "[bdaGDP]", "values": [{"measurement": "kon", "setting": "[1]", "result": 3.12, "unit": "µM^–1s^–1"}, {"measurement": "koff", "setting": "[1]", "result": "3.0x10^–5 s^–1"}, {"measurement": "Kd", "setting": "[3]; +SOS, 1 hr at room temperature", "result": 10, "unit": "pM"}, {"measurement": "Kd", "setting": "[3]; [4]", "result": 10, "unit": "pM"}, {"measurement": "KA", "setting": "[3]", "result": 0.112, "unit": "pM⁻¹"}, {"measurement": "relative association constant KrelA", "setting": "[3]", "result": 0.28}, {"measurement": "Kd", "setting": "[3]; [5]", "result": 8.9, "unit": "pM"}]}
{"smiles": "C=CC(=O)NCCCNC(=O)O[C@H]1[C@@H](O)[C@H](n2cnc3c(=O)[nH]c(N)nc32)O[C@@H]1COP(=O)(O)OP(=O)(O)O", "note": "[pdaGDP]", "values": [{"measurement": "kon", "setting": "[1]", "result": 3.34, "unit": "µM^–1s^–1"}, {"measurement": "koff", "setting": "[1]", "result": "2.9x10^–5 s^–1"}, {"measurement": "Kd", "setting": "[3]; +SOS, 1 hr at room temperature", "result": 10.4, "unit": "pM"}, {"measurement": "Kd", "setting": "[3]; [4]", "result": 8, "unit": "pM"}, {"measurement": "KA", "setting": "[3]", "result": 0.136, "unit": "pM⁻¹"}, {"measurement": "relative association constant KrelA", "setting": "[3]", "result": 0.34}, {"measurement": "Kd", "setting": "[3]; [5]", "result": 7.4, "unit": "pM"}]}
